# Columns and labels:
# [1] = tested on: Human immunodeficiency virus 1; assay: Concentration required to inhibit 50% of HIV-1 (human immunodeficiency virus-1) replication; No suppression at concentrations up to 100 ug/mL.; assay type: functional, organism-based
# H9 = assay: Concentration required to produce 50% toxicity against mock-infected H9 cells; assay type: functional, cell-based; settings: Homo sapiens
# [2] = Therapeutic index expressed as ratio of IC50 for 50% toxicity to EC50 for 50% inhibition; assay type: cell-based; settings: human, H9 cells; read-out: TI
# [3] = tested on: Human immunodeficiency virus 1; assay: Concentration required to inhibit 50% of HIV-1 (human immunodeficiency virus-1) replication; assay type: functional, organism-based
Structure (SMILES),EC50 [1],IC50 (H9) [nM],selectivity ratio [2],EC50 [3] [nM]
C=C(C)[C@@H]1CC[C@]2(CO)CC[C@]3(C)[C@H](CC[C@@H]4[C@@]5(C)CC[C@H](OC(=O)CCC(=O)O)C(C)(C)[C@@H]5CC[C@]43C)[C@@H]12,No suppression,26000,–,–
CC(C)[C@@H]1CC[C@]2(CO)CC[C@]3(C)[C@H](CC[C@@H]4[C@@]5(C)CC[C@H](OC(=O)CCCC(=O)O)C(C)(C)[C@@H]5CC[C@]43C)[C@@H]12,–,23600,1.12e+06,0.02
C=C(C)[C@@H]1CC[C@]2(CO)CC[C@]3(C)[C@H](CC[C@@H]4[C@@]5(C)CC[C@H](OC(=O)CC(C)(C)C(=O)O)C(C)(C)[C@@H]5CC[C@]43C)[C@@H]12,–,33500,5970,5.6
C=C(C)[C@@H]1CC[C@]2(CO)CC[C@]3(C)[C@H](CC[C@@H]4[C@@]5(C)CC[C@H](OC(=O)CC(C)(C)CC(=O)O)C(C)(C)[C@@H]5CC[C@]43C)[C@@H]12,–,28900,6570,4.4
CC(C)[C@@H]1CC[C@]2(CO)CC[C@]3(C)[C@H](CC[C@@H]4[C@@]5(C)CC[C@H](OC(=O)CC(C)(C)CC(=O)O)C(C)(C)[C@@H]5CC[C@]43C)[C@@H]12,–,25700,19500,1.3
C=C(C)[C@@H]1CC[C@]2(CO)CC[C@]3(C)[C@H](CC[C@@H]4[C@@]5(C)CC[C@H](OC(=O)CCCC(=O)O)C(C)(C)[C@@H]5CC[C@]43C)[C@@H]12,–,44400,670,60
CC(C)[C@@H]1CC[C@]2(CO)CC[C@]3(C)[C@H](CC[C@@H]4[C@@]5(C)CC[C@H](OC(=O)CC(C)(C)C(=O)O)C(C)(C)[C@@H]5CC[C@]43C)[C@@H]12,–,27000,16200,1.7
C=C(C)[C@@H]1CC[C@]2(COC(=O)CC(C)(C)CC(=O)O)CC[C@]3(C)[C@H](CC[C@@H]4[C@@]5(C)CC[C@H](OC(=O)CC(C)(C)CC(=O)O)C(C)(C)[C@@H]5CC[C@]43C)[C@@H]12,–,–,21500,0.66
C=C(C)[C@@H]1CC[C@]2(COC(=O)C(C)(C)CC(=O)O)CC[C@]3(C)[C@H](CC[C@@H]4[C@@]5(C)CC[C@H](OC(=O)CC(C)(C)C(=O)O)C(C)(C)[C@@H]5CC[C@]43C)[C@@H]12,–,–,42400,0.87
C=C(C)[C@@H]1CC[C@]2(CO)CC[C@]3(C)[C@H](CC[C@@H]4[C@@]5(C)CC[C@H](OC(=O)COCC(=O)O)C(C)(C)[C@@H]5CC[C@]43C)[C@@H]12,–,> 44800,> 1820,20
C=C(C)[C@@H]1CC[C@]2(C(=O)O)CC[C@]3(C)[C@H](CC[C@@H]4[C@@]5(C)CC[C@H](O)C(C)(C)[C@@H]5CC[C@]43C)[C@@H]12 [BETULINIC ACID],–,–,9.2,1400
C=C(C)[C@@H]1CC[C@]2(C(=O)O)CC[C@]3(C)[C@H](CC[C@@H]4[C@@]5(C)CC[C@H](OC(=O)CC(C)(C)C(=O)O)C(C)(C)[C@@H]5CC[C@]43C)[C@@H]12 [BEVIRIMAT],–,–,> 20000,< 0.35
Cc1cn([C@H]2C[C@H](N=[N+]=[N-])[C@@H](CO)O2)c(=O)[nH]c1=O [ZIDOVUDINE],–,–,–,6.2

# Reference: ChEMBL document CHEMBL1138700, “3-O-Glutaryl-dihydrobetulin and related monoacyl derivatives as potent anti-HIV agents” (Bioorg Med Chem Lett, 2004)
